Experimental data as given in ChEMBL document CHEMBL3797197, “Design and synthesis of triazole-based peptidomimetics of a PSD-95 PDZ domain inhibitor” (Medchemcomm, 2016).
Active and inactive are the calls of the source. The rule behind the calls is not given here. Residues, ends and D or L forms follow the SMILES beside them.

Assays:
Disks large homolog 4 [1] = target: T1, Disks large homolog 4 (Homo sapiens, UniProt P78352); assay: Potency index, ratio of indole 1 Ki to compound Ki for N-terminal His-tagged full length human PSD-95alpha PDZ2 domain (155 to 249 residues) without exon 4b expressed in Escherichia coli BL21(DE3)pLysS
Target sequence in this assay (P78352 whole entry, looked up, the tested form may be a part): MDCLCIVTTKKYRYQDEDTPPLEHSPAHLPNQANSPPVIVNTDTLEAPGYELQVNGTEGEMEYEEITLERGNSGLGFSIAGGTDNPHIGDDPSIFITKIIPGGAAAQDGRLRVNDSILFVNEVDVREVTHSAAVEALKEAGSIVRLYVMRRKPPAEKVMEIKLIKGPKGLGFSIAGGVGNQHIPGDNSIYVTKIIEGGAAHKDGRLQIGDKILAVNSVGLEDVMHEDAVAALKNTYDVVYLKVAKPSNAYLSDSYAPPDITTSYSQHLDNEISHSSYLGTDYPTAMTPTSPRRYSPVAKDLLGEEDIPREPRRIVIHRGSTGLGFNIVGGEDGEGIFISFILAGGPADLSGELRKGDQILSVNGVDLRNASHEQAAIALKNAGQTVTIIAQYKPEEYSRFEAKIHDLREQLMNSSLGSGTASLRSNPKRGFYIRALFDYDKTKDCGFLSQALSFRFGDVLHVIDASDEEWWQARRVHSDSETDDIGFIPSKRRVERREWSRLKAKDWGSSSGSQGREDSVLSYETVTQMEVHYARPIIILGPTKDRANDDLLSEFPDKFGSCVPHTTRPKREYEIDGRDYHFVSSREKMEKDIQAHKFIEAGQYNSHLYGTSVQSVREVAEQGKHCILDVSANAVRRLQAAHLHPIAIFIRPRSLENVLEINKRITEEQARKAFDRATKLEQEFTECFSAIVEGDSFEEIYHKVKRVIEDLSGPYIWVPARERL

Disks large homolog 4 [2] = target: T1, Disks large homolog 4; assay: Displacement of Cy5-GluN2B from N-terminal His-tagged human full length PSD-95alpha PDZ1 domain (61 to 151 residues) without exon 4b expressed in Escherichia coli BL21(DE3)pLysS by fluorescence polarization assay
Target sequence in this assay (P78352 whole entry, the tested form may be a part): as the sequence (P78352 whole entry, looked up, the tested form may be a part) above

Disks large homolog 4 [3] = target: T1, Disks large homolog 4; assay: Displacement of Cy5-GluN2B from N-terminal His-tagged full length human PSD-95alpha PDZ2 domain (155 to 249 residues) without exon 4b expressed in Escherichia coli BL21(DE3)pLysS by fluorescence polarization assay
Target sequence in this assay (P78352 whole entry, the tested form may be a part): as the sequence (P78352 whole entry, looked up, the tested form may be a part) above

Disks large homolog 4 [4] = target: T1, Disks large homolog 4; assay: Displacement of Cy5-CRIPT from N-terminal His-tagged human full length PSD-95alpha PDZ3 domain (309 to 401 residues) without exon 4b expressed in Escherichia coli BL21(DE3)pLysS by fluorescence polarization assay
Target sequence in this assay (P78352 whole entry, looked up, the tested form may be a part): as above

Disks large homolog 4 [5] = target: T1, Disks large homolog 4; assay: Ratio of Kd for N-terminal His-tagged full length human PSD-95alpha PDZ2 domain (155 to 249 residues) without exon 4b expressed in Escherichia coli BL21(DE3)pLysS by […] method to Ki for N-terminal His-tagged full length human PSD-95alpha PDZ2 domain (155 to 249 residues) without exon 4b expressed in Escherichia coli BL21(DE3)pLysS by fluorescence polarization assay
Target sequence in this assay (P78352 whole entry, looked up, the tested form may be a part): as above

Disks large homolog 4 [6] = target: T1, Disks large homolog 4; assay: Binding affinity to N-terminal His-tagged full length human PSD-95alpha PDZ2 domain (155 to 249 residues) without exon 4b expressed in Escherichia coli BL21(DE3)pLysS by […] method
Target sequence in this assay (P78352 whole entry, the tested form may be a part): as the sequence (P78352 whole entry, looked up, the tested form may be a part) above

Disks large homolog 4 [7] = target: Disks large homolog 4 (Rattus norvegicus, UniProt P31016); assay: Inhibition of rat PSD-95 PDZ1 domain interaction with mouse 5HT2A receptor after 18 hrs by pull down assay
Disks large homolog 4 (Rattus norvegicus, UniProt P31016), sequence (P31016 whole entry, the tested form may be a part): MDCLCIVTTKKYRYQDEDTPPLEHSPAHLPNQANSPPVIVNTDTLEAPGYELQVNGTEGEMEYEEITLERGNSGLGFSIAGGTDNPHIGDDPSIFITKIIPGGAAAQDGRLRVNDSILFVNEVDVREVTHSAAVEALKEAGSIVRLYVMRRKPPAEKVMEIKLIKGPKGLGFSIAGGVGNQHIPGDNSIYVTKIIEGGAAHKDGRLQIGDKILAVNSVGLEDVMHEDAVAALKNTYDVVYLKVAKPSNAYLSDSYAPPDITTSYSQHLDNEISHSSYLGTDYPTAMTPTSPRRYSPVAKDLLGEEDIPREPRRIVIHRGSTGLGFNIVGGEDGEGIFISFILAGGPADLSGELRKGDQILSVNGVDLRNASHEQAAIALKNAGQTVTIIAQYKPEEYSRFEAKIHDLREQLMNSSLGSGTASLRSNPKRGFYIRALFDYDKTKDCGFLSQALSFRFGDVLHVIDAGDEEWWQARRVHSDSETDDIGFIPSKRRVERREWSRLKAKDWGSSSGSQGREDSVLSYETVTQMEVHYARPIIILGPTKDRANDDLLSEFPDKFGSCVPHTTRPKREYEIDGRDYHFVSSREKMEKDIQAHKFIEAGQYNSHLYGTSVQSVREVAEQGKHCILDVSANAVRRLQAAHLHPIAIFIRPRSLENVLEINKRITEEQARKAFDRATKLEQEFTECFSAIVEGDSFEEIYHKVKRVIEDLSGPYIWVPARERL

Ratio Ki (Disks large homolog 4 [1]) | Ki (Disks large homolog 4 [2]) | Ki (Disks large homolog 4 [3]) | inhibition (Disks large homolog 4 [4]) | Ratio (Disks large homolog 4 [5]) | Kd (Disks large homolog 4 [6]) | IC50 (Disks large homolog 4 [7]) | Compound
2 | > 500 µM | 289 µM | inactive | 2 | 598 µM |  | CC(C)[C@H](NC(=O)[C@H](C)n1cc([C@@H](N)[C@@H](C)O)nn1)C(=O)O
 | > 1000 µM | 530 µM | inactive |  |  |  | Cc1c(C(=O)O)[nH]c2cc(C(=O)O)c(O)cc12
 | 480 µM | 229 µM |  |  |  |  | CC(C)[C@H](NC(=O)[C@H](C)NC(=O)[C@@H](N)CO)C(=O)O (H-Ser-Ala-Val-OH)
 |  | > 500 µM |  |  |  |  | CC(C)[C@H](NC(=O)c1cn([C@H](C(=O)O)C(C)C)nn1)C(=O)O
 |  | > 500 µM |  |  |  |  | CC(C)[C@@H](C(=O)O)n1cc([C@H](C)NC(=O)[C@@H](N)[C@@H](C)O)nn1
 | > 1000 µM | > 500 µM | inactive |  |  | 190 µM | Cc1c(C(=O)O)n(CCCC(=O)O)c2cc(C(=O)O)c(OCc3ccccc3)cc12
 | 74 µM | 38 µM |  | 2 | 101 µM |  | CC(C)[C@H](NC(=O)[C@H](C)NC(=O)[C@@H](N)[C@@H](C)O)C(=O)O (H-Thr-Ala-Val-OH)
